Laboratory results reported in US20250171437A1 (Agios Pharmaceuticals,Inc., priority 2022, published 2025).

Target: T1, human PAH with the R408W mutation (A375 R408W cells) (Homo sapiens, UniProt P00439, R408W)
T1 construct: expressed in transfected cells
T1 sequence (P00439 1-452 R408W): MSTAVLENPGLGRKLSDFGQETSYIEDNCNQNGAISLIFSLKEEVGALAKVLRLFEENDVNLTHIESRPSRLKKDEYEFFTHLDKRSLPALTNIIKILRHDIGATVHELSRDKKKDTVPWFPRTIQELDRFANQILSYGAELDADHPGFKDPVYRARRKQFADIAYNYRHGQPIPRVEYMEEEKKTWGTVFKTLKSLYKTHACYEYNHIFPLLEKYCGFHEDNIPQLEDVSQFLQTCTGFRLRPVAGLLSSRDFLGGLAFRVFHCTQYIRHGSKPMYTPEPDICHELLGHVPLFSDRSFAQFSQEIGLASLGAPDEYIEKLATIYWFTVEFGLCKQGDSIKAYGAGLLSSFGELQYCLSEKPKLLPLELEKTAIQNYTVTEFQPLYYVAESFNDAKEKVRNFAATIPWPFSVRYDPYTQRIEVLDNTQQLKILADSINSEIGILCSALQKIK
Assay: Cell Based Phenylalanine Flux Assay
Details: A375 R408W cells; 24 hrs with compound, then 20 μM sepiapterin and 800 μM 13C9,15N-Phenylalanine for 4 hours; 13C-Tyrosine by LC-MS; average where tested multiple times
Outline: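 Stable R408W PAH A375 cells: 24 h compound pretreatment in duplicate, then 4 h with 800 μM isotope-labelled Phe and 20 μM sepiapterin. Labelled Tyr output by LC-MS; AC50 averaged where repeated.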

| AC50 | SMILES |
| --- | --- |
| 1000 to 5000 nM | O=C(c1cnc(-c2ccccn2)o1)N1CCc2[nH]cnc2[C@@H]1c1nc2cc(F)ccc2o1 [Example 12, (R)-(4-(5-fluorobenzo[d]oxazol-2-yl)-6,7-dihydro-1H-imidazo[4,5-c]pyridin-5(4H)-yl)(2-(pyridin-2-yl)oxazol-5-yl)methanone] |
| ≤ 500 nM | CC(C)(F)c1ncc(C(=O)N2CCc3[nH]cnc3[C@H]2c2nc3cc(F)ccc3o2)o1 [Example 13, (S)-(4-(5-fluorobenzo[d]oxazol-2-yl)-6,7-dihydro-1H-imidazo[4,5-c]pyridin-5(4H)-yl)(2-(2-fluoropropan-2-yl)oxazol-5-yl)methanone] |
| 1000 to 5000 nM | CC(C)(F)c1ncc(C(=O)N2CCc3[nH]cnc3[C@@H]2c2nc3cc(F)ccc3o2)o1 [Example 14, (R)-(4-(5-fluorobenzo[d]oxazol-2-yl)-6,7-dihydro-1H-imidazo[4,5-c]pyridin-5(4H)-yl)(2-(2-fluoropropan-2-yl)oxazol-5-yl)methanone] |
| 500 to 1000 nM | O=C(c1nnc(C2CC2)o1)N1CCc2[nH]cnc2[C@H]1c1nc2cc(F)ccc2o1 [Example 15, (S)-(5-cyclopropyl-1,3,4-oxadiazol-2-yl)(4-(5-fluorobenzo[d]oxazol-2-yl)-6,7-dihydro-1H-imidazo[4,5-c]pyridin-5(4H)-yl)methanone] |
| 1000 to 5000 nM | O=C(c1nnc(C2CC2)o1)N1CCc2[nH]cnc2[C@@H]1c1nc2cc(F)ccc2o1 [Example 16, (R)-(5-cyclopropyl-1,3,4-oxadiazol-2-yl)(4-(5-fluorobenzo[d]oxazol-2-yl)-6,7-dihydro-1H-imidazo[4,5-c]pyridin-5(4H)-yl)methanone] |
| ≤ 500 nM | CC(C)(C)c1ncc(C(=O)N2CCc3[nH]cnc3[C@H]2c2nc3cc(F)ccc3o2)s1 [Example 17, (S)-(2-(tert-butyl)thiazol-5-yl)(4-(5-fluorobenzo[d]oxazol-2-yl)-6,7-dihydro-1H-imidazo[4,5-c]pyridin-5(4H)-yl)methanone] |
| 1000 to 5000 nM | CC(C)(C)c1ncc(C(=O)N2CCc3[nH]cnc3[C@@H]2c2nc3cc(F)ccc3o2)s1 [Example 18, (R)-(2-(tert-butyl)thiazol-5-yl)(4-(5-fluorobenzo[d]oxazol-2-yl)-6,7-dihydro-1H-imidazo[4,5-c]pyridin-5(4H)-yl)methanone] |
| 1000 to 5000 nM | Cc1ccc2c(C(=O)N3CCc4[nH]cnc4[C@H]3c3nc4cc(F)ccc4o3)cnn2c1 [Example 19, (S)-(4-(5-fluorobenzo[d]oxazol-2-yl)-6,7-dihydro-1H-imidazo[4,5-c]pyridin-5(4H)-yl)(6-methylpyrazolo[1,5-a]pyridin-3-yl)methanone] |
| ≥ 5000 nM | Cc1ccc2c(C(=O)N3CCc4[nH]cnc4[C@@H]3c3nc4cc(F)ccc4o3)cnn2c1 [Example 20, (R)-(4-(5-fluorobenzo[d]oxazol-2-yl)-6,7-dihydro-1H-imidazo[4,5-c]pyridin-5(4H)-yl)(6-methylpyrazolo[1,5-a]pyridin-3-yl)methanone] |
| ≤ 500 nM | CC(C)(C)c1ncc(C(=O)N2CCc3[nH]cnc3[C@H]2c2nc3cc(F)ccc3o2)o1 [Example 21, (S)-(2-(tert-butyl)oxazol-5-yl)(4-(5-fluorobenzo[d]oxazol-2-yl)-6,7-dihydro-1H-imidazo[4,5-c]pyridin-5(4H)-yl)methanone] |
| 1000 to 5000 nM | CC(C)(C)c1ncc(C(=O)N2CCc3[nH]cnc3[C@@H]2c2nc3cc(F)ccc3o2)o1 [Example 22, (R)-(2-(tert-butyl)oxazol-5-yl)(4-(5-fluorobenzo[d]oxazol-2-yl)-6,7-dihydro-1H-imidazo[4,5-c]pyridin-5(4H)-yl)methanone] |
| ≤ 500 nM | O=C(c1ocnc1C(F)(F)F)N1CCc2[nH]cnc2[C@H]1c1nc2cc(F)ccc2o1 [Example 23, (S)-(4-(5-fluorobenzo[d]oxazol-2-yl)-6,7-dihydro-1H-imidazo[4,5-c]pyridin-5(4H)-yl)(4-(trifluoromethyl)oxazol-5-yl)methanone] |
| 1000 to 5000 nM | O=C(c1ocnc1C(F)(F)F)N1CCc2[nH]cnc2[C@@H]1c1nc2cc(F)ccc2o1 [Example 24] |
| ≤ 500 nM | O=C(c1nnc(-c2c(F)cccc2F)o1)N1CCc2[nH]cnc2[C@H]1c1nc2cc(F)ccc2o1 [Example 25, (S)-(5-(2,6-difluorophenyl)-1,3,4-oxadiazol-2-yl)(4-(5-fluorobenzo[d]oxazol-2-yl)-6,7-dihydro-1H-imidazo[4,5-c]pyridin-5(4H)-yl)methanone] |
| 500 to 1000 nM | O=C(c1nnc(-c2c(F)cccc2F)o1)N1CCc2[nH]cnc2[C@@H]1c1nc2cc(F)ccc2o1 [Example 26, (R)-(5-(2,6-difluorophenyl)-1,3,4-oxadiazol-2-yl)(4-(5-fluorobenzo[d]oxazol-2-yl)-6,7-dihydro-1H-imidazo[4,5-c]pyridin-5(4H)-yl)methanone] |
| ≤ 500 nM | O=C(c1nnc(-c2ccc(F)cc2)o1)N1CCc2[nH]cnc2[C@H]1c1nc2cc(F)ccc2o1 [Example 27, (S)-(4-(5-fluorobenzo[d]oxazol-2-yl)-6,7-dihydro-1H-imidazo[4,5-c]pyridin-5(4H)-yl)(5-(4-fluorophenyl)-1,3,4-oxadiazol-2-yl)methanone] |
| 1000 to 5000 nM | O=C(c1nnc(-c2ccc(F)cc2)o1)N1CCc2[nH]cnc2[C@@H]1c1nc2cc(F)ccc2o1 [Example 28, (R)-(4-(5-fluorobenzo[d]oxazol-2-yl)-6,7-dihydro-1H-imidazo[4,5-c]pyridin-5(4H)-yl)(5-(4-fluorophenyl)-1,3,4-oxadiazol-2-yl)methanone] |
| 1000 to 5000 nM | COCc1ccc2c(C(=O)N3CCc4[nH]cnc4[C@H]3c3nc4cc(F)ccc4o3)cnn2c1 [Example 29, (S)-(4-(5-fluorobenzo[d]oxazol-2-yl)-6,7-dihydro-1H-imidazo[4,5-c]pyridin-5(4H)-yl)(6-(methoxymethyl)pyrazolo[1,5-a]pyridin-3-yl)methanone] |
| 500 to 1000 nM | Cc1nc(-c2ccccn2)oc1C(=O)N1CCc2[nH]cnc2[C@H]1c1nc2cc(F)ccc2o1 [Example 31, (S)-(4-(5-fluorobenzo[d]oxazol-2-yl)-6,7-dihydro-1H-imidazo[4,5-c]pyridin-5(4H)-yl)(4-methyl-2-(pyridin-2-yl)oxazol-5-yl)methanone] |
| 1000 to 5000 nM | Cc1nc(-c2ccccn2)oc1C(=O)N1CCc2[nH]cnc2[C@@H]1c1nc2cc(F)ccc2o1 [Example 32, (R)-(4-(5-fluorobenzo[d]oxazol-2-yl)-6,7-dihydro-1H-imidazo[4,5-c]pyridin-5(4H)-yl)(4-methyl-2-(pyridin-2-yl)oxazol-5-yl)methanone] |
| 500 to 1000 nM | O=C(c1nnc(-c2ccc(F)cn2)o1)N1CCc2[nH]cnc2[C@H]1c1nc2cc(F)ccc2o1 [Example 33, (S)-(4-(5-fluorobenzo[d]oxazol-2-yl)-6,7-dihydro-1H-imidazo[4,5-c]pyridin-5(4H)-yl)(5-(5-fluoropyridin-2-yl)-1,3,4-oxadiazol-2-yl)methanone] |
| 1000 to 5000 nM | O=C(c1nnc(-c2ccc(F)cn2)o1)N1CCc2[nH]cnc2[C@@H]1c1nc2cc(F)ccc2o1 [Example 34, (R)-(4-(5-fluorobenzo[d]oxazol-2-yl)-6,7-dihydro-1H-imidazo[4,5-c]pyridin-5(4H)-yl)(5-(5-fluoropyridin-2-yl)-1,3,4-oxadiazol-2-yl)methanone] |
| 500 to 1000 nM | CC(F)(F)c1ncc(C(=O)N2CCc3[nH]cnc3[C@H]2c2nc3cc(F)ccc3o2)s1 [Example 35, (S)-(2-(1,1-difluoroethyl)thiazol-5-yl)(4-(5-fluorobenzo[d]oxazol-2-yl)-6,7-dihydro-1H-imidazo[4,5-c]pyridin-5(4H)-yl)methanone] |
